Data as given in US20250009698A1, “NERVONIC ACID-BASED COMPOSITIONS AND METHODS” (REGENTS OF THE UNIVERSITY OF MINNESOTA, priority 2023, published 2025).
“Also recorded” adds a separate entry of the source.

How the values were obtained:
[1] = system: ALD cells (cALD and AMN cells); experiment: Basal energy production measured as ATP content in ALD cells; type: cell-based, human
Procedure: (§1) In vitro and in vivo experiments were done to evaluate the ability of nervonic acid to modulate ALD associated biochemistry in various ALD phenotypes including childhood cerebral ALD (cALD) and adrenomyeloneuropathy (AMN). Nervonic acid (NA) was compared to the erucic acid (EA), the active ingredient in Lorenzo's oil. […] Additionally, the potential of NA and EA to alter the basal energy production measured as ATP content in ALD cells was assessed (Terluk et al., Neurotherapeutics 2022 April; 19(3):1007-1017. doi: 10.1007/s13311-022-01226-7). Following a five-day treatment with NA, cellular ATP content was increased in cALD cells (FIG. 6).

ALD double knockout mice = experiment: In vivo mouse study, four-week NA or EA diet, fatty acids in plasma and tissues; conditions: for C26:0 in tissues, 3% NA group versus 3% EA group: comparison of 3% NA and 3% EA treatment groups
Procedure: An in vivo ALD double knockout mice model was used to evaluate the effect of NA or EA on various fatty acid concentrations in the tissue of the mice see Example). Mice were fed a diet containing 0.6% NA, 3% NA, or 3% EA for four weeks (FIG. 20). Blood samples taken every week and tissues harvested after four weeks of treatment were analyzed for fatty acid concentration.
Double ALD knockout mice were grown to eight weeks. At eight week the mice were split into four treatment groups. Three of the treatment groups received nervonic acid (NA, 0.6% or 3%) or erucic acid (EA, 3%) through their daily diet. Specifically, mice were fed with rodent chow (TEKLAD Rodent Chow available from Inotiv in West Lafayette, IN) mixed with the desired amount of NA or EA. Food was available continuously and new food was added every other day. Daily food intake was weighed and mouse weighed every week. Blood samples were taken weekly for four weeks. Following four weeks, the mice were sacrificed, and their tissues analyzed for fatty acid content. GCMS was used for lipid fatty acid content analysis and LC-MS/MS was used to analyze Lyso-PC.

[2] = preliminary animal studies; cited from earlier work
ELOVL1 = biological target: T1, ELOVL1 (Homo sapiens, UniProt Q9BW60); conditions: earlier studies; cited from earlier work
T1 sequence (Q9BW60 1-279): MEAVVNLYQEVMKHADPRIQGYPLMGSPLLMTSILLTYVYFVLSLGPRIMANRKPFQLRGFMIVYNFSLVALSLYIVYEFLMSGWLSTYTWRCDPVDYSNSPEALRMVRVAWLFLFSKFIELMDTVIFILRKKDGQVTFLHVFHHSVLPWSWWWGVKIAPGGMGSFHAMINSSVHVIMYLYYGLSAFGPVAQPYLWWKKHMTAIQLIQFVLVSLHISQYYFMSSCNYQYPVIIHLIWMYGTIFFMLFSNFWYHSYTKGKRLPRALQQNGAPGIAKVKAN

[3] = system: Human dermal AMN fibroblasts (GM17819); experiment: Imaging study of oxidative stress (CELLROX, MITOSOX); type: cell-based; conditions: five days, compared to vehicle and control
Procedure: A second set of in vitro experiments were conducted to more thoroughly understand the mechanism of action of nervonic acid in the mitochondria of ALD cells. AMN patient derived fibroblasts were treated with various concentrations of NA (5 μM, 20 μM, and 50 μM in ethanol) and evaluated for mitochondrial oxidative stress by evaluating reactive oxygen species (see Example) and mitochondrial respiration (see Example). FIG. 9 and FIG. 11 show images of the NA AMN treated cells stained for reactive oxygen species (green) or mitochondrial superoxide (red) and nuclei (blue; see Imaging Study in Example). FIG. 10 and FIG. 12 show bar graphs quantifying the reactive oxygen species fluorescence of FIG. 9 and the mitochondrial superoxide fluorescence of FIG. 11.
Human dermal fibroblasts (GM17819) were seeded on chamber slides with a density of 12,500 cells per well and incubated at 37° C. At ˜80% confluence, cells were treated with ethanol (vehicle, <0.1%) and NA (5 μM, 20 μM, or 50 μM) for five days. Untreated AMN fibroblasts were considered the control group. […] Cell localization and fluorescence visualization were then completed using a fluorescence microscope (BZ-X810; Keyence, Osaka, Japan). […]

AMN and cALD cells = experiment: Fatty acid levels in ALD cells treated with NA or EA; type: cell-based, human; conditions: 0, 5, 20, 50 μM
Procedure: as §1

[4] = system: ALD gene-knockout mice (KO; ABCD1-); experiment: Pharmacokinetics of NA study, single oral dose; type: in vivo, mouse
Procedure: (§2) Pharmacokinetic studies were conducted to determine the key pharmacokinetic parameters of NA in an ALD mouse model and assess alterations in plasma C26:0 levels following single-dose NA administration. The pharmacokinetic parameters of NA were defined for the first time in rodents (FIG. 35-39). […] The concentrations of NA in the brain (FIG. 37) and in the liver (FIG. 38) were determined.
(§3) Pharmacokinetic studies were conducted using 12-week-old male ALD gene-knockout mice (KO; ABCD1-) following a single oral administration of 10 mg of NA. Blood samples were collected from the submandibular vein prior to dosing and at 0.25, 0.5, 1, 2, 6, 18, 24, 30, 48, 72, and 168 hours post-administration. The concentrations of NA in plasma and tissues were analyzed at the Kennedy Krieger Institute using GC/MS. Pharmacokinetic parameters including systemic clearance (CL/F), volumes of distribution (V/F), elimination half-life (ti/2), and the area under the curve (AUC) were estimated using PHOENIX (Certara USA, Radnor, PA) with non-compartmental analysis (NCA).

[5] = Pharmacokinetics of NA study, single oral dose; type: in vivo, mouse; conditions: male, ALD gene-knockout (ABCD1-), mouse, in vivo; single oral 10 mg; plasma; NCA
Procedure: as §2, §3

[6] = cited from earlier work
[7] = system: ALD patient-derived fibroblasts; conditions: earlier studies; cited from earlier work
AMN cells = experiment: Long chain fatty acid (LCFA) oxidation stress test with UK5099, BPTES, etomoxir; type: cell-based, human; conditions: 20 μM NA, 24 h, with inhibitors UK, BP, ETO alone or combined
Excerpt: A long chain fatty acid (LCFA) oxidation stress test (SEAHORSE XF assay; Agilent Technologies, Inc., Santa Clara, CA) was used to assess how NA affects mitochondrial respiration when various metabolic pathways of mitochondria are inhibited. Specific inhibitors to block glucose, fatty acid or glutamine pathways were used alone or in combination to understand the substrate specific effects of NA. In this assay the mitochondrial stress test (MST) is repeated with one or more inhibitors of glycolysis, the TCA cycle, electron transport, and oxidative phosphorylation pathways are present. Etomoxir (Eto) is used to inhibit carnitine palmitoyl transferase 1a (CPT1a), an enzyme important in the mechanism for beta oxidation (degradation) of long chain fatty acids. UK5099 (UK) is used to inhibit transport of glucose and/or pyruvate by targeting the mitochondrial pyruvate carrier (MPC). BPTES (BP) is used to inhibit glutaminase GLS1, an enzyme that converts glutamine into glutamate, a substrate for further oxidation in the TCA cycle. AMN cells were incubated with one or more of the inhibitors with or without 20 μM NA and run through the mitochondrial stress test. The results are shown in FIG. 17, FIG. 18, and FIG. 19.

AMN cells (GM17819) = experiment: Seahorse cell mitochondrial stress test (MST), oxygen consumption rate; type: cell-based, human; conditions: 5, 20, 50 μM NA, 24 hours
Procedure: Mitochondrial function was assessed using a cell mitochondrial stress test (MST; see Seahorse study in the Example). As depicted in FIG. 8, in this experiment, inhibitors of various electron transport chain components (oligomycin; FCCP/carbonyl cyanide 4-(trifluoromethoxy)phenylhydrazone; rotenone and antimycin A) are sequentially incubated with cells and the oxygen consumption rate (OCR) measured following each incubation to evaluate various individual parameters of respiration. The OCR of cells that were treated with NA was compared with cells not treated with NA. FIG. 13A-13, FIG. 14A-B, FIG. 15A-B, and FIG. 16A-B are plots showing the results of the respiration test.
Mitochondrial function was assessed on AMN cells (GM17819) using the Cell Mito Stress Test (CMST) in an XFe96 Extracellular Flux Analyzer (Agilent Technologies, Inc., Santa Clara, CA). Cells (1.25×10^4 cells/well) were seeded overnight on Cell-Tak coated XFe96 microplate and then treated with NA (5 μM, 20 μM, or 50 μM) for 24 hours. For the CMST measurements, the culture medium was replaced with XF DMEM medium supplemented with glutamine 4 mM, sodium pyruvate 1 mM, and glucose 24.9 mM, pH 7.4 and 37° C. Oxygen consumption rate (OCR) was detected at baseline and after the following injections: 1) oligomycin (3 μM), 2) carbonyl cyanide 4-(trifluoromethoxy)phenylhydrazone/FCCP (2 μM), and 3) rotenone (1 μM) plus antimycin A (1 μM). This protocol allowed the analysis of the following parameters: basal respiration, ATP production, proton leak, maximal respiration, spare respiratory capacity, non-mito respiration, coupling efficiency percent, and spare respiratory capacity percent. OCR data were normalized by the number of cells determined by using CyQUANT NF Cell Proliferation Assay Kit (Thermo Fisher Scientific, Inc., Waltham, MA) and a fluorescence microplate reader. OCR results were generated by SEAHORSE WAVE PRO (Agilent Technologies, Inc., Santa Clara, CA) and analyzed with the SEAHORSE Analytics software (Agilent Technologies, Inc., Santa Clara, CA).

CCCCCCCC/C=C\CCCCCCCCCCCC(=O)O [EA, erucic acid, reference compound]
cellular ATP content (energy production) at 20 μM ([1]; 20 μM, compared to vehicle-treated cells, five-day treatment): did not show a marked increase
C22:1 amount in brain (ALD double knockout mice; 3% EA diet, four weeks): did not show an elevation
C22:1 (EA) levels in liver, kidney, heart, and adrenal (ALD double knockout mice; compared to control group, 3% EA diet, four weeks): significant elevation
C26:0 in tissues, 3% NA group versus 3% EA group (ALD double knockout mice): no significant difference; also recorded: comparable
C22:1 (EA) level in plasma (ALD double knockout mice; only after 4-week treatment with 3% EA): significant increase
cardiotoxicity [2]: associated with cardiotoxicity

CCCCCCCC/C=C\CCCCCCCCCCCCCC(=O)O [NA, Nervonic acid]
cellular ATP content ([1]; cALD cells, five-day treatment): increased
cellular ATP content at other concentrations ([1]; concentrations other than 20 μM, cALD and AMN cells): a trend was observed
inhibition of ELOVL1 (ELOVL1): competitively inhibit
mitochondrial superoxide (MITOSOX fluorescence) ([3]; 5 μM or 20 μM): decrease
reactive oxygen species (CELLROX fluorescence) ([3]; 5 μM, 20 μM, or 50 μM): decrease
amount of C26:0 fatty acid (AMN and cALD cells): dose-dependent effect on decreasing
CL/F ([4]; single oral 10 mg, plasma, NCA): 8.509 mL/h
Ke ([4]; single oral 10 mg, plasma, NCA): 0.01113 h⁻¹
V/F ([4]; single oral 10 mg, plasma, NCA): 764.7 mL
plasma C26:0 LPC ([4]; single oral dose 10 mg NA): does not significantly affect
plasma C26:0 levels ([4]; single oral dose 10 mg NA): does not significantly affect
AUC [5]: 2330 µg·h/mL
Cmax [5]: 32700 ng/mL
Tmax [5]: 2 h
half-life [5]: 2.6 days
plasma C26:0 Lyso-phosphatidylcholine (C26:0 LPC) (ALD double knockout mice; after 4-week treatment, dose-dependent manner): significantly reduced
C24:1 levels in liver, kidney, heart, and adrenal gland (ALD double knockout mice; compared to control group, NA diet, four weeks): significant elevation
C26:0 in tissues, 3% NA group versus 3% EA group (ALD double knockout mice): no significant difference; also recorded: comparable
plasma C26:0 (ALD double knockout mice; diet 0.6% or 3% NA): dose dependent decrease
NA level in plasma at steady state (ALD double knockout mice; following four-week treatment): approximately 70 pig/mL
C26:1 levels in plasma (ALD double knockout mice; intake of NA): significant increase
C26:0 levels in tissues (ALD double knockout mice; liver, kidney, brain, heart, adrenal, four weeks): decrease
solubility in dimethyl sulfoxide ([6]; dimethyl sulfoxide): approximately 20 mg/ml
solubility in dimethylformamide ([6]; dimethylformamide): approximately 20 mg/ml
solubility in ethanol ([6]; ethanol): approximately 10 mg/ml
accumulation of C26:0 [7]: biochemically reverse
acute response (AMN cells): No significant change
basal respiration (AMN cells): No significant change
maximal respiration (AMN cells): No significant change
ATP production (AMN cells (GM17819)): increase
basal respiration (AMN cells (GM17819)): increase
maximal respiration (AMN cells (GM17819)): increase
spare respiratory capacity (AMN cells (GM17819)): increase
